In article PMC5855800, “Charged N-terminus of Influenza Fusion Peptide Facilitates Membrane Fusion” (International Journal of Molecular Sciences, 2018):
Values joined by “and” are separate entries in the source; they are usually repeats but may differ in a detail not shown here. Identical values can stand only once. Like-named read-outs stand apart in the source and are kept apart here.

Tests used:
[1] = pH 5
[2] = assay type: binding
[3] = NMR, cited from earlier work
Description: These values are considerably higher than expected in a hydrophobic environment (8.00 ± 0.03). […] T ...

[4] = POPC vesicles; cited from earlier work
Description: Since the early observations by Lear and de Grado [2] showing that membrane fusion of lipid vesicles can be accomplished by a short N-terminal synthetic fragment of HA2 subunit, such fusion peptides (HAfp) have been extensively used as full-length hemagglutinin mimicking species in the studies on membrane fusion. […] This is ...

| SMILES | NBD-C6-PE fluorescence lifetime with peptide [1] [ns] | Difference of ∆G^0 between N-acetylated and unmodified peptide of the same length ([2]; pH 5.0) | Gibbs binding free energy ΔGx^0 ([2]; pH 5.0) [kJ/mol] | Gibbs binding free energy ΔGx^0 ([2]; pH 7.4) [kJ/mol] | Partition coefficient Kx·10^−3 ([2]; 22.0 °C) | pK for G1 N-terminal amino group ([3]; in the presence of dodecylphosphatidyl (DPC) detergents) | pK for G1 N-terminal amino group ([3]; in the presence of dioleoyl phosphocholine (PC) lipids) | Ability to induce membrane fusion, in words [4] |
| --- | --- | --- | --- | --- | --- | --- | --- | --- |
| CC[C@H](C)[C@H](NC(=O)[C@H](C)NC(=O)CNC(=O)[C@H](Cc1ccccc1)NC(=O)[C@H](CC(C)C)NC(=O)CNC(C)=O)C(=O)N[C@@H](C)C(=O)NCC(=O)N[C@@H](Cc1ccccc1)C(=O)N[C@H](C(=O)N[C@@H](CCC(=O)O)C(=O)NCC(=O)NCC(=O)N[C@@H](Cc1c[nH]c2ccccc12)C(=O)N[C@@H](CCC(N)=O)C(=O)NCC(=O)N[C@@H](CCSC)C(=O)N[C@H](C(=O)N[C@@H](CC(=O)O)C(=O)NCC(=O)N[C@@H](Cc1c[nH]c2ccccc12)C(=O)N[C@@H](Cc1ccc(O)cc1)C(=O)NCC(N)=O)C(C)C)[C@@H](C)CC [23Ac] | 6.66 ± 0.25 | ~ 2.3 kJ/mol | -35.2 ± 0.3 | -37.4 ± 0.2 | – | – | – | – |
| CC[C@H](C)[C@H](NC(=O)[C@H](C)NC(=O)CNC(=O)[C@H](Cc1ccccc1)NC(=O)[C@H](CC(C)C)NC(=O)CNC(C)=O)C(=O)N[C@@H](C)C(=O)NCC(=O)N[C@@H](Cc1ccccc1)C(=O)N[C@H](C(=O)N[C@@H](CCC(=O)O)C(=O)NCC(=O)NCC(=O)N[C@@H](Cc1c[nH]c2ccccc12)C(=O)N[C@@H](CCC(N)=O)C(=O)NCC(=O)N[C@@H](CCSC)C(=O)N[C@H](C(=O)N[C@@H](CC(=O)O)C(=O)NCC(N)=O)C(C)C)[C@@H](C)CC [20Ac] | – | – | -31.6 ± 0.2 | -28.7 ± 0.2 | – | – | – | – |
| CC[C@H](C)[C@H](NC(=O)[C@H](C)NC(=O)CNC(=O)[C@H](Cc1ccccc1)NC(=O)[C@H](CC(C)C)NC(=O)CN)C(=O)N[C@@H](C)C(=O)NCC(=O)N[C@@H](Cc1ccccc1)C(=O)N[C@H](C(=O)N[C@@H](CCC(=O)O)C(=O)NCC(=O)NCC(=O)N[C@@H](Cc1c[nH]c2ccccc12)C(=O)N[C@@H](CCC(N)=O)C(=O)NCC(=O)N[C@@H](CCSC)C(=O)N[C@H](C(=O)N[C@@H](CC(=O)O)C(=O)NCC(=O)N[C@@H](Cc1c[nH]c2ccccc12)C(=O)N[C@@H](Cc1ccc(O)cc1)C(=O)NCC(N)=O)C(C)C)[C@@H](C)CC [23N+] | 6.55 ± 0.23 | – | -32.9 ± 0.3 | -32.1 ± 0.7 | 660 ± 80 and 480 ± 130 | 8.8 | – | – |
| CC[C@H](C)[C@H](NC(=O)[C@H](C)NC(=O)CNC(=O)[C@H](Cc1ccccc1)NC(=O)[C@H](CC(C)C)NC(=O)CN)C(=O)N[C@@H](C)C(=O)NCC(=O)N[C@@H](Cc1ccccc1)C(=O)N[C@H](C(=O)N[C@@H](CCC(=O)O)C(=O)NCC(=O)NCC(=O)N[C@@H](Cc1c[nH]c2ccccc12)C(=O)N[C@@H](CCC(N)=O)C(=O)NCC(=O)N[C@@H](CCSC)C(=O)N[C@H](C(=O)N[C@@H](CC(=O)O)C(=O)NCC(N)=O)C(C)C)[C@@H](C)CC [20N+] | 6.78 ± 0.20 | – | -32.8 ± 0.3 | -30.1 ± 0.4 | – | – | 8.69 | able to induce membrane fusion |
